In patent US12570657B2, “Mesylate salts of heterocyclic cytokinins, compositions containing these derivatives and use thereof” (UNIVERZITA PALACKEHO V OLOMOUCI, priority 2020, dated 2026):
In brackets after ≈: the same amount, converted by molar mass. Where two headings read alike, the source gives them in different places.

Tests used:
NIH-3T3 = test: In vitro cytotoxicity, Calcein AM assay, NIH-3T3; type: cell-based; conditions: Mus musculus, NIH3T3, 72 h, 3-day Calcein-AM assay
Text: Because toxic compounds adversely affect cell metabolic processes, many standard cytotoxicity assays are based on measuring the rate of metabolism of various artificial substrates. The resulting product is then quantified, for example, by spectrometry. Assays can be easily modified for use in 96-well plates, A microtiter assay based on the quantification of Calcein AM metabolism was used to evaluate the cytotoxicity of cytokinins, for example meta-topolin, ortho-topolin, kinetin, BAP or its mesylate salts, but also a number of other cytokinin mesylate derivatives according to the invention. The test is widely used in drug screening programs and in chemosensitivity testing. In living cells, Calcein AM is enzymatically hydrolyzed and the accumulation of the resulting calcein is manifested by green fluorescence. The following cell lines—RPMI 8226 (multiple myeloma), CEM (T-lymphoblastic leukemia), K562 (chronic myeloid leukemia), HL-60 (promyelocytic, leukemia), MCF-7 (breast adenocarcinoma), HeLa (cervical cancer), G361 (malignant melanoma), HOS (human osteosarcoma) and BJ (human foreskin fibroblasts)—were obtained from the American Type Culture Collection (Manassas, VA, USA). These cells were maintained in standard DMEM or RPMI medium (Sigma, MO, USA) supplemented with heat-inactivated fetal bovine serum (10%) with 2 mM L-glutamine and penicillin-streptomycin (1%) under standard cell culture conditions (37° C., 5% CO2 in a humid environment) and subcultured two or three times a week using a standard trypsinization procedure. Approximately 10,000 cells in 80 μl of medium were seeded in a 96-well microtiter plate. After 12 hours of incubation, the compounds to be tested were added in 20 μl aliquots. Control cultures were treated with DMSO alone. […] Serial, 3-fold dilutions (six in total, peak concentrations in 166 μM incubations) of each compound were tested. After 72 hours of incubation, Calcein AM solution (Molecular Probes) was added to a final concentration of 1 μg/ml and the cells were incubated for another hour. Free calcein fluorescence was then quantified using a Fluoroscan Ascent fluorometer (Microsystems), and the percentage of surviving cells in each well was calculated by dividing the OD obtained from each cell by the exposed cells by the mean OD obtained from control wells×100%, Finally, IC50 values (concentration causing a 50% decrease in cellular esterase activity) were calculated for each compound generated from dose-response curves (Krys̆tof et al., 2005, Bioorg. Med. Chem. Lett. 12, 3283-3286). The IC50 values reported here are averages obtained from at least three independent experiments, where the individual replication values fell within 20% of the average. […]

[1] = system: Spring barley (variety Francin); test: Field trial: grain yield and productive tillers of spring barley after foliar spray; type: in vivo; conditions: for Length of plants / Medium tillers (number) / Number of spikes per square meter / SUM of tillers / Strong tillers (number) / Weak tillers (number) / Grain yield (t/ha) at 14% humidity / Grain yield, % compared to control / Length of plants, % compared to control / Medium tillers, % compared to control / Number of spikes per square meter, % compared to control / SUM of tillers, % compared to control / Strong tillers, % compared to control / Weak tillers, % compared to control: 5 uMol; for Length of plants / Medium tillers (number) / Number of spikes per square meter / SUM of tillers / Strong tillers (number) / Weak tillers (number) / Grain yield, % compared to control / Length of plants, % compared to control / Medium tillers, % compared to control / Number of spikes per square meter, % compared to control / SUM of tillers, % compared to control / Strong tillers, % compared to control / Weak tillers, % compared to control: application BBCH 31-33; for Grain yield (t/ha) at 14% humidity: application BBCH 31-33, spring barley; for Grain yield, % compared to control / Length of plants, % compared to control / Medium tillers, % compared to control / Number of spikes per square meter, % compared to control / SUM of tillers, % compared to control / Strong tillers, % compared to control / Weak tillers, % compared to control: untreated control = 100; for Grain yield: foliar spray 300 l/ha, BBCH 31-33
Experimental: Spring barley (variety Francin) was treated in 2019 at the locality in Olomouc, sprayed with substances—marked BAP (benzylaminopurine), meta-topolin mesylate and BAP mesylate. The seed was 3.5 million germinating seeds, the experiment was established in 5 randomized replicates for each variant, the control was an untreated variant. The experiment was performed according to the GEP (Good Experimental Practice) methodology, the size of individual plots was 10 m^2. The application of the substances was carried out at a rate of 300 l/ha, in the growth phase BBCH 31-33 (beginning of peeling).

[2] = Disproportionation stability study (water slurry, XRPD); type: physicochemical; conditions: slurried in distilled water ca. 48 hours
Experimental: A 50 mg sample of crystalline meta-topolin mesylate crystalline salt was slurried in 250 μL distilled water for ca. 48 hours and then checked by XRPD for disproportionation.

[3] = Storage stability study of solid crystalline salt (XRPD, colour); type: physicochemical; conditions: sealed tube, 25° C., 60 days
Experimental: 50 mg sample of crystalline meta-topolin mesylate crystalline salt was placed in an eppendorf tube and sealed. The sample was kept at 25° C. for 60 days. No color change was noted during the storage period. XRPD of samples were taken after 60 days to investigate any solid form change.

[4] = Solubility in organic solvents (progressive solvent addition); type: physicochemical; conditions: organic solvent or mixture, thermodynamic from solid
Experimental: Solubility in organic solvents was measured using the following protocol. Approximately 25 mg portions of meta-topolin and crystalline meta-topolin mesylate salt were placed in 48 different vials, separately. 5 volume aliquots of each solvent were added progressively (repeatedly) to the vials. After each addition, the mixture was checked for dissolution and if no dissolution was visible, the procedure was continued until dissolution was observed, or until 50 volumes have been added.

[5] = water; reported value; cited from earlier work
[6] = DMF, read-out: Solubility in DMF
[7] = DMSO, read-out: Solubility in DMSO
[8] = acetone, read-out: Solubility in aceton
[9] = acetonitrile, read-out: Solubility in acetonitrile
[10] = ethanol, read-out: Solubility in ethanol
[11] = heptane, read-out: Solubility in heptane
[12] = methanol, read-out: Solubility in methanol

Row | Structure (SMILES) | IC50 (NIH-3T3) [µM] | Length of plants [1] [cm] | Medium tillers (number) [1] | Number of spikes per square meter [1] | SUM of tillers [1] | Strong tillers (number) [1] | Weak tillers (number) [1] | Grain yield (t/ha) at 14% humidity [1] [t/ha] | Grain yield, % compared to control [1] [%] | Length of plants, % compared to control [1] [%] | Medium tillers, % compared to control [1] [%] | Number of spikes per square meter, % compared to control [1] [%] | SUM of tillers, % compared to control [1] [%] | Strong tillers, % compared to control [1] [%] | Weak tillers, % compared to control [1] [%] | Grain yield [1] | solubility [4, 6] [µg/mL] | solubility [4, 7] [µg/mL] | solubility [4, 8] [µg/mL] | solubility [4, 9] [µg/mL] | also measured
1 | COc1cccc(CNc2ncnc3nc[nH]c23)c1 [3MeOBAP, 6-(3-methoxybenzylamino)purine] | > 167 |  |  |  |  |  |  |  |  |  |  |  |  |  |  |  |  |  |  |  | 
2 | CS(=O)(=O)O.c1ccc(CNc2ncnc3nc[nH]c23)cc1 [BAP mesylate, 6-benzylaminopurine mesylate] | > 167 | 83.2 | 1.35 | 758.4 | 6.35 | 2.75 | 2.25 | 7.74 | 104.34 | 100.48 | 64.29 | 112.06 | 110.43 | 152.78 | 121.62 | 104.34 % at control |  |  |  |  | 
3 | c1ccc(CNc2ncnc3nc[nH]c23)cc1 [BAP, 6-benzylaminopurine] |  | 82.5 | 1.7 | 752 | 6.6 | 2.8 | 2.1 | 7.42 | 100.13 | 99.64 | 80.95 | 111.11 | 114.78 | 155.56 | 113.51 | did not affect grain yield |  |  |  |  | 
4 | CS(=O)(=O)O.Oc1cccc(CNc2ncnc3nc[nH]c23)c1 [mT mesylate, 6-(3-hydroxybenzylamino)purine mesylate] |  |  |  |  |  |  |  |  |  |  |  |  |  |  |  | 108.03 % at control | 6000 | 22000 | 400 | < 250 | Disproportionation (XRPD) [2]: No signs of disproportionation were observed; Storage stability (XRPD pattern and colour) [3]: did not reveal any changes in XRPD spektra, or change in color; solubility [4, 10]: 400 µg/mL; solubility [4, 11]: < 100 µg/mL; solubility [4, 12]: 700 µg/mL
5 | Oc1cccc(CNc2ncnc3nc[nH]c23)c1 [meta-topolin (mT), 6-(3-hydroxybenzylamino)purine] |  |  |  |  |  |  |  |  |  |  |  |  |  |  |  |  | 6000 (≈ 24.9 mM) | 24000 (≈ 99.5 mM) | 400 (≈ 1.66 mM) | < 250 | aqueous solubility (reported) [5]: < 250 µg/mL; solubility [4, 10]: 5000 µg/mL (≈ 20.7 mM); solubility [4, 11]: < 100 µg/mL; solubility [4, 12]: 5000 µg/mL (≈ 20.7 mM)
